What all share (assay type): functional
In experiment [1] the test system is Mythimna separata. The experiment is described as follows: Insecticidal activity against fourth instar larvae of Mythimna separata (Oriental armyworm) in compound treated corn leaves assessed as mortality at 500 mg/kg by foliar application.
The subject of experiment [2] is Mythimna separata. The experiment is described as follows: Insecticidal activity against fourth instar larvae of Mythimna separata (Oriental armyworm) in compound treated corn leaves assessed as mortality at 50 mg/kg by foliar application.
The subject of experiment [3] is Mythimna separata. The experiment is described as follows: Insecticidal activity against fourth instar larvae of Mythimna separata (Oriental armyworm) in compound treated corn leaves assessed as mortality at 200 mg/kg by foliar application.
The subject of experiment [4] is Mythimna separata. The experiment can be described thus: Insecticidal activity against fourth instar larvae of Mythimna separata (Oriental armyworm) in compound treated corn leaves assessed as mortality at 0.1 mg/kg by foliar application.
In experiment [5] the test system is Mythimna separata. The experiment can be described thus: Insecticidal activity against fourth instar larvae of Mythimna separata (Oriental armyworm) in compound treated corn leaves assessed as mortality at 0.2 mg/kg by foliar application.
The test system of experiment [6] is Mythimna separata. The experiment can be described thus: Insecticidal activity against fourth instar larvae of Mythimna separata (Oriental armyworm) in compound treated corn leaves assessed as mortality at 0.5 mg/kg by foliar application.
Experiment [7] has as its system Mythimna separata. The experiment is described as follows: Insecticidal activity against fourth instar larvae of Mythimna separata (Oriental armyworm) in compound treated corn leaves assessed as mortality at 1 mg/kg by foliar application.
In experiment [8] the test system is Mythimna separata. The experiment is described as follows: Insecticidal activity against fourth instar larvae of Mythimna separata (Oriental armyworm) in compound treated corn leaves assessed as mortality at 5 mg/kg by foliar application.
Experiment [9] concerns Mythimna separata. The experiment is described as follows: Insecticidal activity against fourth instar larvae of Mythimna separata (Oriental armyworm) in compound treated corn leaves assessed as mortality at 10 mg/kg by foliar application.
For experiment [10], the system named is Mythimna separata. The experiment can be described thus: Insecticidal activity against fourth instar larvae of Mythimna separata (Oriental armyworm) in compound treated corn leaves assessed as mortality at 25 mg/kg by foliar application.
In experiment [11] the test system is Mythimna separata. The experiment is described as follows: Insecticidal activity against fourth instar larvae of Mythimna separata (Oriental armyworm) in compound treated corn leaves assessed as mortality at 100 mg/kg by foliar application.

From ChEMBL document CHEMBL3046681, “Synthesis and insecticidal evaluation of propesticides of benzoylphenylureas” (2005) come the findings set out here.

Broadly, the mortality is the share of the test organisms that died.

With `CN(SN(C(=O)NC(=O)c1c(F)cccc1F)c1ccc(Cl)cc1)C(=O)OCc1ccccc1`, the mortality at 500 mg/kg with Mythimna separata [1] is 100%. Moreover, in the experiment on Mythimna separata [2], the mortality at 50 mg/kg was 100%. Further, the mortality at 200 mg/kg in the experiment with Mythimna separata [3] was 100%. The mortality at 0.1 mg/kg in the experiment on Mythimna separata [4] worked out at 0%. Also, the mortality at 0.2 mg/kg in the experiment on Mythimna separata [5] came to 0%. In the experiment on Mythimna separata [6], the mortality at 0.5 mg/kg is 55%. In the experiment with Mythimna separata [7], the mortality at 1 mg/kg amounted to 85%. The mortality at 5 mg/kg in the experiment on Mythimna separata [8] amounted to 100%. For the same compound, in the experiment with Mythimna separata [9], the mortality at 10 mg/kg was found to be 100%. Also, in the experiment with Mythimna separata [10], the mortality at 25 mg/kg worked out at 100%. In addition, the mortality at 100 mg/kg in the experiment with Mythimna separata [11] came to 100%.

Take `CCOC(=O)N(C)SN(C(=O)NC(=O)c1c(F)cccc1F)c1ccc(C(F)(F)F)cc1`: the mortality at 500 mg/kg in the experiment with Mythimna separata [1] was 100%. Moreover, the mortality at 50 mg/kg in the experiment on Mythimna separata [2] worked out at 100%. Moreover, the mortality at 200 mg/kg with Mythimna separata [3] amounted to 100%. Further, in the experiment on Mythimna separata [4], the mortality at 0.1 mg/kg is 0%. In addition, the mortality at 0.2 mg/kg with Mythimna separata [5] worked out at 85%. Further, the mortality at 0.5 mg/kg with Mythimna separata [6] is 95%. Also, the mortality at 1 mg/kg with Mythimna separata [7] was 100%. Moreover, the mortality at 5 mg/kg in the experiment with Mythimna separata [8] was 100%. The mortality at 10 mg/kg in the experiment with Mythimna separata [9] worked out at 100%. In the experiment with Mythimna separata [10], the mortality at 25 mg/kg was 100%. The mortality at 100 mg/kg in the experiment on Mythimna separata [11] worked out at 100%.

For the compound `O=C(NC(=O)N(C(=O)OCc1ccccc1)c1ccc(C(F)(F)F)cc1)c1c(F)cccc1F`, in the experiment with Mythimna separata [1], the mortality at 500 mg/kg amounted to 100%. For the same compound, in the experiment on Mythimna separata [2], the mortality at 50 mg/kg is 0%. For the same compound, the mortality at 200 mg/kg with Mythimna separata [3] turned out to be 30%. The mortality at 0.2 mg/kg in the experiment on Mythimna separata [5] amounted to 0%. Also, the mortality at 0.5 mg/kg in the experiment on Mythimna separata [6] is 0%. For the same compound, the mortality at 1 mg/kg with Mythimna separata [7] is 0%. The mortality at 5 mg/kg in the experiment with Mythimna separata [8] worked out at 0%. The mortality at 10 mg/kg in the experiment with Mythimna separata [9] turned out to be 0%. The mortality at 25 mg/kg with Mythimna separata [10] is 0%. For the same compound, the mortality at 100 mg/kg in the experiment on Mythimna separata [11] was 0%.

As to `O=C(NC(=O)N(C(=O)OCc1ccccc1)c1ccc(Cl)cc1)c1c(F)cccc1F`, the mortality at 500 mg/kg in the experiment on Mythimna separata [1] stood at 100%. Also, in the experiment on Mythimna separata [2], the mortality at 50 mg/kg was 0%. In addition, the mortality at 200 mg/kg in the experiment on Mythimna separata [3] amounted to 100%. Also, the mortality at 0.2 mg/kg with Mythimna separata [5] is 0%. The mortality at 0.5 mg/kg with Mythimna separata [6] came to 0%. Also, in the experiment on Mythimna separata [7], the mortality at 1 mg/kg was 0%. Also, in the experiment with Mythimna separata [8], the mortality at 5 mg/kg worked out at 0%. Moreover, the mortality at 10 mg/kg in the experiment with Mythimna separata [9] came out at 0%. Moreover, the mortality at 25 mg/kg in the experiment with Mythimna separata [10] amounted to 0%. Besides, the mortality at 100 mg/kg with Mythimna separata [11] is 70%.

For `CC(C)(C)OC(=O)N(C(=O)NC(=O)c1c(F)cccc1F)c1ccc(Cl)cc1`, the mortality at 500 mg/kg in the experiment with Mythimna separata [1] was determined as 100%. Also, the mortality at 50 mg/kg in the experiment with Mythimna separata [2] was 100%. Also, in the experiment with Mythimna separata [3], the mortality at 200 mg/kg was determined as 100%. Further, in the experiment on Mythimna separata [5], the mortality at 0.2 mg/kg amounted to 0%. The mortality at 0.5 mg/kg with Mythimna separata [6] was 0%. Also, the mortality at 1 mg/kg with Mythimna separata [7] is 5%. Also, in the experiment on Mythimna separata [8], the mortality at 5 mg/kg was determined as 95%. Moreover, the mortality at 10 mg/kg with Mythimna separata [9] turned out to be 100%. The mortality at 25 mg/kg in the experiment with Mythimna separata [10] was determined as 100%. In the experiment on Mythimna separata [11], the mortality at 100 mg/kg came to 100%.

In the case of `O=C(NC(=O)c1c(F)cccc1F)Nc1ccc(Cl)cc1` [DIFLUBENZURON], the mortality at 500 mg/kg with Mythimna separata [1] is 100%. In addition, in the experiment with Mythimna separata [2], the mortality at 50 mg/kg is 100%. Further, the mortality at 200 mg/kg in the experiment on Mythimna separata [3] came out at 100%. In the experiment with Mythimna separata [4], the mortality at 0.1 mg/kg worked out at 0%. Further, the mortality at 0.2 mg/kg with Mythimna separata [5] came out at 45%. Also, the mortality at 0.5 mg/kg in the experiment on Mythimna separata [6] worked out at 100%. The mortality at 1 mg/kg in the experiment with Mythimna separata [7] was found to be 100%. For the same compound, in the experiment with Mythimna separata [8], the mortality at 5 mg/kg was found to be 100%. In the experiment with Mythimna separata [9], the mortality at 10 mg/kg came out at 100%. Also, the mortality at 25 mg/kg in the experiment with Mythimna separata [10] was determined as 100%. Besides, the mortality at 100 mg/kg in the experiment with Mythimna separata [11] amounted to 100%.

Turning to `CCOC(=O)N(C)SN(C(=O)NC(=O)c1c(F)cccc1F)c1ccc(Cl)cc1`, the mortality at 500 mg/kg with Mythimna separata [1] turned out to be 100%. For the same compound, the mortality at 50 mg/kg in the experiment with Mythimna separata [2] was 100%. In addition, the mortality at 200 mg/kg with Mythimna separata [3] turned out to be 100%. In the experiment with Mythimna separata [4], the mortality at 0.1 mg/kg worked out at 0%. Moreover, the mortality at 0.2 mg/kg in the experiment with Mythimna separata [5] is 5%. The mortality at 1 mg/kg with Mythimna separata [7] was found to be 20%. Besides, the mortality at 5 mg/kg in the experiment on Mythimna separata [8] stood at 100%. Moreover, the mortality at 10 mg/kg in the experiment on Mythimna separata [9] is 100%. In the experiment on Mythimna separata [10], the mortality at 25 mg/kg was determined as 100%. For the same compound, the mortality at 100 mg/kg with Mythimna separata [11] is 100%.

As for `CCOC(=O)N(C(=O)NC(=O)c1c(F)cccc1F)c1ccc(Cl)cc1`, the mortality at 500 mg/kg with Mythimna separata [1] worked out at 100%. In the experiment on Mythimna separata [2], the mortality at 50 mg/kg was determined as 100%. In addition, the mortality at 200 mg/kg with Mythimna separata [3] was 100%. Further, the mortality at 0.2 mg/kg in the experiment with Mythimna separata [5] was 0%. Also, the mortality at 0.5 mg/kg in the experiment on Mythimna separata [6] was found to be 0%. Further, the mortality at 1 mg/kg in the experiment with Mythimna separata [7] is 0%. Also, in the experiment on Mythimna separata [8], the mortality at 5 mg/kg was 0%. Further, the mortality at 10 mg/kg in the experiment with Mythimna separata [9] stood at 0%. For the same compound, the mortality at 25 mg/kg in the experiment on Mythimna separata [10] is 100%. The mortality at 100 mg/kg in the experiment on Mythimna separata [11] is 100%.

Consider `CCOC(=O)N(C(=O)NC(=O)c1c(F)cccc1F)c1ccc(C(F)(F)F)cc1`, for which the mortality at 500 mg/kg with Mythimna separata [1] was 100%. For the same compound, the mortality at 50 mg/kg in the experiment on Mythimna separata [2] came to 100%. The mortality at 200 mg/kg in the experiment with Mythimna separata [3] worked out at 100%. In addition, the mortality at 0.2 mg/kg in the experiment on Mythimna separata [5] is 0%. The mortality at 0.5 mg/kg with Mythimna separata [6] amounted to 0%. In the experiment with Mythimna separata [7], the mortality at 1 mg/kg stood at 0%. The mortality at 5 mg/kg with Mythimna separata [8] was determined as 0%. Further, the mortality at 10 mg/kg in the experiment on Mythimna separata [9] was determined as 0%. For the same compound, the mortality at 25 mg/kg in the experiment with Mythimna separata [10] was 5%. The mortality at 100 mg/kg with Mythimna separata [11] came to 100%.

As for `CC(C)(C)OC(=O)N(C(=O)NC(=O)c1c(F)cccc1F)c1ccc(C(F)(F)F)cc1`, the mortality at 500 mg/kg in the experiment with Mythimna separata [1] was determined as 100%. Also, in the experiment on Mythimna separata [2], the mortality at 50 mg/kg came out at 100%. Further, the mortality at 200 mg/kg in the experiment with Mythimna separata [3] worked out at 100%. The mortality at 0.2 mg/kg with Mythimna separata [5] amounted to 0%. Besides, in the experiment with Mythimna separata [6], the mortality at 0.5 mg/kg stood at 0%. Also, in the experiment on Mythimna separata [7], the mortality at 1 mg/kg was found to be 0%. For the same compound, the mortality at 5 mg/kg in the experiment on Mythimna separata [8] was 75%. In addition, in the experiment on Mythimna separata [9], the mortality at 10 mg/kg was found to be 100%. Besides, the mortality at 25 mg/kg with Mythimna separata [10] was 100%. For the same compound, the mortality at 100 mg/kg in the experiment on Mythimna separata [11] is 100%.

With `CN(SN(C(=O)NC(=O)c1c(F)cccc1F)c1ccc(C(F)(F)F)cc1)C(=O)OC(C)(C)C`, the mortality at 500 mg/kg in the experiment with Mythimna separata [1] amounted to 100%. Besides, in the experiment on Mythimna separata [2], the mortality at 50 mg/kg is 100%. The mortality at 200 mg/kg in the experiment on Mythimna separata [3] turned out to be 100%. Further, the mortality at 0.1 mg/kg in the experiment with Mythimna separata [4] turned out to be 0%. Besides, the mortality at 0.2 mg/kg with Mythimna separata [5] was determined as 35%. For the same compound, the mortality at 0.5 mg/kg with Mythimna separata [6] is 100%. Also, the mortality at 1 mg/kg in the experiment with Mythimna separata [7] came out at 100%. In addition, the mortality at 5 mg/kg in the experiment with Mythimna separata [8] is 100%. Also, the mortality at 10 mg/kg with Mythimna separata [9] is 100%. In the experiment with Mythimna separata [10], the mortality at 25 mg/kg amounted to 100%. Further, the mortality at 100 mg/kg in the experiment on Mythimna separata [11] is 100%.
